In this assay the target is rat 5-HT7 receptor (Rattus norvegicus (Rat), UniProt P32305). As to the kind of experiment: r5-HT7 binding assay, competitive radioligand binding with [3H]5-CT. The procedure: Receptor binding was performed using membrane fractions prepared from the HEK-293 cell line recombinantly expressing rat 5-HT7 receptors (NCBI accession NM_022938). Compound affinity for the rat 5-HT7 receptor subtype was evaluated by competitive radioligand binding assays using 5-carboxamido[^3H]tryptamine ([^3H]5-CT) (Amersham Biosciences, cat. 90000403) detection. HitHunter™ cAMP assays are in-vitro based competitive immunoassays. The assay was performed on the HEK-293 cell line stably transfected with r5-HT7 receptor. Cells were pre-incubated with test compounds for 10 minutes. For antagonist testing, the cells were then challenged with 100 nM 5-CT for 20 minutes. Cells were then lysed and cAMP measured according to manufacturers protocol (Amersham, cat. NET791250UC) or [^3H]mesulergine (Amersham, cat. TRK1041). The assay was performed on membranes prepared from HEK-293 cells stably transfected with h5-HT6. Following centrifugation, membranes were resuspended and incubated for 60 min at room temperature with 1.7 nM [^3H]LSD in the presence of increasing concentration of test compounds. Nonspecific binding was defined in the presence of 10 μM clozapine (Tocris, cat. TRK1068). Homogenized HEK-293 membranes expressing the human SERT were incubated in 50 mM Tris-HCl (pH 7.5), 120 mM NaCl, 5 mM KCl with [^3H]-citalopram (3 nM) with or without test compounds. Nonspecific binding was determined in the presence of 10 μM fluoxetine. Radioactivity readouts and Ki values were performed as previously described for r5-HT7. […] Compounds were assayed in their free form or as salts, as indicated in the Examples section above.
Sequence of rat 5-HT7 receptor (P32305 1-435): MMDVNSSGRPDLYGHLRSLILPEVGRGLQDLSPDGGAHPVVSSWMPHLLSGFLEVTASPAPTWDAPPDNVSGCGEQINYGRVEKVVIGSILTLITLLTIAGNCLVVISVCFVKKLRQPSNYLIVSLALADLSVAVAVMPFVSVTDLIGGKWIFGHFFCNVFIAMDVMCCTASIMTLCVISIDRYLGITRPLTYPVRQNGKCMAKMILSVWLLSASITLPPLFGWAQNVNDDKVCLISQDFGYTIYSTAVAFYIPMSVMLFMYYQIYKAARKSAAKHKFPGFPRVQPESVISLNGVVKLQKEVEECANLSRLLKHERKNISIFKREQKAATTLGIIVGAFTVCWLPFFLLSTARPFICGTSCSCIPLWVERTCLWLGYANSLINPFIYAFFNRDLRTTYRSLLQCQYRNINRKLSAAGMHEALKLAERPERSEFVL

Where [1] appears, read: rat 5-HT7 receptor, HEK-293 membranes.

Counter-ions that a name gives are not always drawn.

Broadly, the Ki is a measure of affinity in units of concentration, obtained from inhibition or displacement. As for `CC(Oc1ccc(Cl)cc1OC1CN(C(C)C)C1)c1cccc(C(F)(F)F)c1` (racemic) [Example 106, (±)-3-[5-Chloro-2-[1-(3-trifluoromethyl-phenyl)-ethoxy]-phenoxy]-1-isopropyl-azetidine], affinity under setting [1] was put at a Ki of 75 nM.
Where the note is “rat 5-HT7, HEK-293 membranes”, `O=C(c1ccc(Cl)c(F)c1)c1ccc(Br)cc1OC1CNC1` [Example 292, [2-(Azetidin-3-yloxy)-4-bromo-phenyl]-(4-chloro-3-fluoro-phenyl)-methanone] returned a Ki of 74 nM.
The compound `FC(F)(F)Oc1ccc(COc2ccc(Cl)cc2OC2CNC2)cc1Cl` [Example 41, 3-[5-Chloro-2-(3-chloro-4-trifluoromethoxy-benzyloxy)-phenoxy]-azetidine] registered a Ki under setting [1] of 130 nM.
The same measure, in the same setting: as for `FC(F)(F)Sc1ccc(COc2ccc(Cl)cc2OC2CNC2)cc1` [Example 46, 3-[5-Chloro-2-(4-trifluoromethylsulfanyl-benzyloxy)-phenoxy]-azetidine], the figure is 102 nM.
With `Fc1ccc(OCc2cccc(Cl)c2)c(OC2CN(C3CCC3)C2)c1` [Example 205, 3-[2-(3-Chloro-benzyloxy)-5-fluoro-phenoxy]-1-cyclobutyl-azetidine], the Ki under setting [1] turned out to be 27 nM.
Same read-out and setting: as for `CN1CCC(Oc2cc(Br)ccc2OCc2cccc(Cl)c2)C1` (racemic) [Example 95, (±)-3-[5-Bromo-2-(3-chloro-benzyloxy)-phenoxy]-1-methyl-pyrrolidine], the figure is 9 nM; as for `Fc1cc(Cl)cc(OC2CNC2)c1OCc1ccccc1` [Example 197, 3-(2-Benzyloxy-5-chloro-3-fluoro-phenoxy)-azetidine], 1420 nM.
Where the note is “rat 5-HT7, HEK-293 membranes”, `Brc1ccc(Oc2cccc3ccccc23)c(OC2CNC2)c1` [Example 255, 3-[5-Bromo-2-(naphthalen-1-yloxy)-phenoxy]-azetidine] came in with a Ki of 196 nM.
Still for that read-out and setting: with `Clc1cccc(COc2ccc(Cl)cc2COC2CNC2)c1` [Example 238, 3-[5-Chloro-2-(3-chloro-benzyloxy)-benzyloxy]-azetidine] the figure was 200 nM.
Take `CC(Oc1ccc(Cl)cc1OC1CNC1)c1ccc(C(F)(F)F)c(F)c1` (racemic) [Example 118, (±)-3-[5-Chloro-2-[1-(3-fluoro-4-trifluoromethyl-phenyl)-ethoxy]-phenoxy]-azetidine]: under setting [1], affinity was put at a Ki of 90 nM.
On the same count and under the same terms, as for `Fc1ccc(OCc2cccc(Cl)c2)c(OC2CNC2)c1` [Example 202, 3-[2-(3-Chloro-benzyloxy)-5-fluoro-phenoxy]-azetidine hydrochloride], the figure is 66 nM.
On to `O=C(c1ccc2ccccc2c1)c1ccc(Cl)cc1OC1CNC1` [Example 294, [2-(Azetidin-3-yloxy)-4-chloro-phenyl]-naphthalen-2-yl-methanone], for which, where the note is “rat 5-HT7, HEK-293 membranes”, the Ki is 72 nM.
As to `COc1cccc(C(=O)c2ccc(Br)cc2OC2CNC2)c1` [Example 286, [2-(Azetidin-3-yloxy)-4-bromo-phenyl]-(3-methoxy-phenyl)-methanone], the inhibition constant Ki (rat 5-HT7, HEK-293 membranes) was determined as 39 nM.
On the same count and under the same terms, with `CC(C)N1CC(Oc2cc(Br)ccc2C(=O)c2ccc3ccccc3c2)C1` [Example 288, [4-Bromo-2-(1-isopropyl-azetidin-3-yloxy)-phenyl]-naphthalen-2-yl-methanone] the figure was 59 nM; with `Clc1ccc(OC2CNC2)c(OC2CNC2)c1` [Example 226], 840 nM.
Still for that read-out and setting: as for `CN1CC(COc2cc(Br)ccc2OCc2cccc(Cl)c2)C1` [Example 234, 3-[5-Bromo-2-(3-chloro-benzyloxy)-phenoxymethyl]-1-methyl-azetidine], the figure is 130 nM.
In turn, `C[C@H](Oc1ccc(Cl)cc1OC1CN(Cc2ccccc2)C1)c1cccc(C(F)(F)F)c1` [Example 104, (S)-1-Benzyl-3-[5-chloro-2-[1-(3-trifluoromethyl-phenyl)-ethoxy]-phenoxy]-azetidine] registered a Ki under setting [1] of 166 nM.
As for `CC(C)N1CC(Oc2cc(F)ccc2OCc2cccc(Cl)c2)C1` [Example 204, 3-[2-(3-Chloro-benzyloxy)-5-fluoro-phenoxy]-1-isopropyl-azetidine], under setting [1], the affinity corresponds to a Ki of 27 nM.
On to `CC(Oc1ccc(Cl)cc1OC1CNC1)c1cccc(OC(F)(F)F)c1` (racemic) [Example 127, (±)-3-[5-Chloro-2-[1-(3-trifluoromethoxy-phenyl)-ethoxy]-phenoxy]azetidine], for which affinity under setting [1] was put at a Ki of 63 nM.
As to `CN1CC(Oc2cc(Br)ccc2C(=O)c2cccc(Cl)c2)C1` [Example 283, [4-Bromo-2-(1-methyl-azetidin-3-yloxy)-phenyl]-(3-chloro-phenyl)-methanone], the Ki (rat 5-HT7, HEK-293 membranes) came out at 50 nM.
The compound `O=C(O)c1cc(COc2ccc(Cl)cc2OC2CNC2)oc1C(F)(F)F` [Example 75, 5-[2-(Azetidin-3-yloxy)-4-chloro-phenoxymethyl]-2-trifluoromethyl-furan-3-carboxylic acid trifluoroacetate] registered a Ki under setting [1] of 9000 nM.
In turn, `O=C(COc1ccc(Cl)cc1OC1CNC1)c1ccc(Cl)cc1` [Example 183, 2-[2-(Azetidin-3-yloxy)-4-chloro-phenoxy]-1-(4-chloro-phenyl)-ethanone] showed an inhibition constant (Ki) under setting [1] of 110 nM.
With `O=C(c1cccc(Cl)c1)c1ccc(Cl)cc1OC1CNC1` [Example 298, [2-(Azetidin-3-yloxy)-4-chloro-phenyl]-(3-chloro-phenyl)-methanone], the Ki (rat 5-HT7, HEK-293 membranes) amounted to 102 nM.
For the compound `Clc1ccc(OCC2CCCO2)c(OC2CNC2)c1` (centres unmarked) [Example 166, 3-[5-Chloro-2-(tetrahydro-furan-2-ylmethoxy)-phenoxy]-azetidine], the affinity under setting [1], expressed as Ki, was 1270 nM.
The compound `CC(Oc1ccc(Cl)cc1OC1CNC1)c1cc(F)cc(C(F)(F)F)c1` (racemic) [Example 119, (±)-3-[5-Chloro-2-[1-(3-fluoro-5-trifluoromethyl-phenyl)-ethoxy]-phenoxy]-azetidine] came in with a Ki under setting [1] of 288 nM.
`FCC(Oc1ccc(Cl)cc1OC1CNC1)c1ccccc1` (centres unmarked) [Example 143, 3-[5-Chloro-2-(2-fluoro-1-phenyl-ethoxy)-phenoxy]-azetidine] registered a Ki under setting [1] of 215 nM.
The same measure, in the same setting: with `CC(Oc1ccc(Cl)cc1OC1CNC1)c1ccccc1Cl` (racemic) [Example 116, (±)-3-[5-Chloro-2-[1-(2-chloro-phenyl)-ethoxy]-phenoxy]-azetidine] the figure was 68 nM; with `CN1CC(Oc2cc(Br)ccc2OCc2ccccc2Cl)C1` [Example 16, 3-[5-Bromo-2-(2-chloro-benzyloxy)-phenoxy]-1-methyl-azetidine], 100 nM.
The compound `CCC(Oc1ccc(Cl)cc1OC1CNC1)c1cccc(C(F)(F)F)c1` (racemic) [Example 140, (±)-3-[5-Chloro-2-[1-(3-trifluoromethyl-phenyl)-propoxy]-phenoxy]-azetidine] displayed a Ki under setting [1] of 230 nM.
In the case of `CC(Oc1ccc(Cl)cc1OC1CNC1)c1ccccc1C(F)(F)F` (racemic) [Example 122, (±)-3-[5-Chloro-2-[1-(2-trifluoromethyl-phenyl)-ethoxy]-phenoxy]-azetidine], under setting [1], the Ki came to 210 nM.
In turn, `CC(C)N1CC(Oc2ccc(Cl)cc2OC2CN(C(C)C)C2)C1` [Example 227, 3-[5-Chloro-2-(1-Isopropyl-azetidin-3-ol)-phenoxy]-1-isopropyl-azetidine] gave a Ki (rat 5-HT7, HEK-293 membranes) of 336 nM.
The compound `FC(F)(F)Oc1ccc(COc2ccc(Br)cc2OC2CNC2)cc1Cl` [Example 11, 3-[5-Bromo-2-(3-chloro-4-trifluoromethoxy-benzyloxy)-phenoxy]-azetidine] showed a Ki under setting [1] of 53 nM.
Take `O=C(c1ccc(Cl)cc1)c1ccc(Cl)cc1OC1CNC1` [Example 297, [2-(Azetidin-3-yloxy)-4-chloro-phenyl]-(4-chloro-phenyl)-methanone]: the Ki (rat 5-HT7, HEK-293 membranes) was 150 nM.
Consider `O=C(c1ccccc1)c1ccc(Br)cc1OC1CNC1` [Example 280], for which the Ki (rat 5-HT7, HEK-293 membranes) amounted to 98 nM.
As for `Clc1cccc(COc2cc(Br)ccc2OC2CN(C3CCC3)C2)c1` [Example 23, 3-[4-Bromo-2-(3-chloro-benzyloxy)-phenoxy]-1-cyclobutyl-azetidine], under setting [1], the Ki was determined as 121 nM.
Under “rat 5-HT7, HEK-293 membranes”, `Clc1ccc(Oc2ccc3cccnc3n2)c(OC2CNC2)c1` [Example 263, 2-[2-(Azetidin-3-yloxy)-4-chloro-phenoxy]-[1,8]naphthyridine] gave a Ki of 544 nM.
The same measure, in the same setting: as for `O=C(c1ccc(Cl)c(Cl)c1)c1ccc(Br)cc1OC1CNC1` [Example 293, [2-(Azetidin-3-yloxy)-4-bromo-phenyl]-(3,4-dichloro-phenyl)-methanone], the figure is 51 nM.
`CS(=O)(=O)c1cc(Cl)ccc1COc1ccc(Cl)cc1OC1CNC1` [Example 56, 3-[5-Chloro-2-(4-chloro-2-methanesulfonyl-benzyloxy)-phenoxy]-azetidine] gave a Ki under setting [1] of 9000 nM.
`Clc1ccc(OCC2Cc3ccccc3O2)c(OC2CNC2)c1` (centres unmarked) [Example 169, 3-[5-Chloro-2-(2,3-dihydro-benzofuran-2-ylmethoxy)-phenoxy]-azetidine] returned a Ki under setting [1] of 119 nM.
Same read-out and setting: with `Clc1cccc(COc2ccc(-c3ccsc3)cc2OC2CNC2)c1` [Example 210, 3-[2-(3-Chloro-benzyloxy)-5-thiophen-3-yl-phenoxy]-azetidine] the figure was 506 nM; with `Cc1cc(COc2ccc(Cl)cc2OC2CNC2)n(C)n1` [Example 170, 5-[2-(Azetidin-3-yloxy)-4-chloro-phenoxymethyl]-1,3-dimethyl-1H-pyrazole], 5000 nM.
